Measurements published in patent US9862742B2, “Tricyclic nucleosides and oligomeric compounds prepared therefrom” (UNIVERSITAT BERN, priority 2013, dated 2018).
Oligonucleotides are written 5' to 3', each unit as a sugar letter and its base; * is a phosphorothioate linkage, no mark a phosphodiester; rarer units and linkages stand in square brackets, end groups in braces. Plain capitals give the bases only. [6'F-TC-N] = 6'-fluorinated tricyclic nucleoside, subtype b of the publication (N: the base); [F-tcDNA] = 6'-fluoro tricyclic (tricyclo-DNA) nucleoside; [tcDNA-N] = tricyclo-DNA nucleoside (N: the base); [tcDNA] = tricyclo-DNA nucleoside; d = 2'-deoxy (DNA); {P} = phosphate

Key:
complementary RNA = test: Tm study of oligomeric compounds duplexed with complementary RNA (UV melting); format: binding; conditions: 1.2 μM, 150 mM NaCl, 10 mM phosphate, 0.1 mM EDTA, pH 7; for ΔTm/mod (° C.) vs RNA: referenced to unmodified DNA or to the fully modified tricyclo-DNA oligomer
Experimental: (§1) The relative ability of a chemically-modified oligomeric compound to bind to complementary nucleic acid strands, as compared to natural oligonucleotides, is measured by obtaining the melting temperature of a hybridization complex of said chemically-modified oligomeric compound with its complementary unmodified target nucleic acid. The melting temperature (Tm), a characteristic physical property of double helixes, denotes the temperature in degrees centigrade at which 50% helical versus coiled (unhybridized) forms are present. Tm (also commonly referred to as binding affinity) is measured by using the UV spectrum to determine the formation and breakdown (melting) of hybridization. Base stacking, which occurs during hybridization, is accompanied by a reduction in UV absorption (hypochromicity). Consequently a reduction in UV absorption indicates a higher Tm. Following standard automated DNA synthesis protocols oligomeric compounds were prepared comprising one or more tricyclic nucleosides for Tm studies. After cleavage from the solid support, the oligomeric compounds were purified by ion exchange HPLC and analyzed by LCMS using standard procedures. The Tm of the modified 10 mer oligomeric compounds were compared to an unmodified 10 mer DNA oligonucleotide when duplexed to either DNA or RNA. Tm's were determined using a Cary 100 Bio spectrophotometer with the Cary Win UV thermal program was used to measure absorbance vs. temperature. For the Tm experiments, the oligomeric compounds were prepared at a concentration of 1.2 μM in a buffer of 150 mM NaCl, 10 mM phosphate, 0.1 mM EDTA at pH 7. The concentration determined at 85° C. was 1.2 μM after mixing of equal volumes of selected oligomeric compound and complementary RNA or DNA. The oligomeric compounds were hybridized with a complementary RNA or DNA by heating the duplex to 90° C. for 5 minutes and then cooling to room temperature. Tm measurements were taken using a spectrophotometer while the duplex solution was heated in a cuvette at a rate of 0.5° C./min starting at 15° C. until the temperature was 85° C. Tm values were determined using Vant Hoff calculations (A260 vs temperature curve) using non self-complementary sequences where the minimum absorbance related to the duplex and the maximum absorbance related to the non-duplex single strand are manually integrated into the program.

complementary DNA = test: Tm study of oligomeric compounds duplexed with complementary DNA (UV melting); format: binding; conditions: 1.2 μM, 150 mM NaCl, 10 mM phosphate, 0.1 mM EDTA, pH 7; for ΔTm/mod (° C.) vs DNA: referenced to unmodified DNA or to the fully modified tricyclo-DNA oligomer
Experimental: as §1

[1] = system: exon 23 of the mouse dystrophin gene; test: Exon 23 skipping in primary mdx cells, gymnotic delivery, RT-PCR/nested PCR and gel electrophoresis; format: cell-based; conditions: for exon skipping (exon 23, gel of nested PCR products): 50 μg (approx 9 nmol) oligonucleotide, no transfection agent (gymnosis), harvested 4 days after transfection
Description: The mdx mouse represents a model for the human genetic disease Duchenne muscular dystrophy. It contains a mutation in exon 23 of the mouse dystrophin gene which gives rise to a premature stop codon. As a consequence no functional dystrophin mRNA and dystrophin protein is produced. It is known in the field (Lu et al., Proc Natl Acad Sci USA 2005, 102, 198-203) that administration of an antisense oligonucleotide designed to bind to the exon/intron junction of exon 23 leads to skipping of exon 23 during mRNA splicing and thus to a functional variant of the mouse dystrophin protein.
To test the exon skipping potential of A20-A23, mdx primary cells (mdx mouse) were transfected without transfection agents (gymnosis) with 50 μg (approx 9 nmol) of each oligonucleotide A20 to A23. Cells were harvested 4 days after transfection and the RNA was extracted. RT-PCR and nested PCR around exon 23 (EX20F/Ex26R) was performed and the products analyzed by gel electrophoresis (FIG. 1).
The slower moving band correspond to nonskipped RNA (including […]) while the faster moving band corresponds to skipped ([…] excluded) RNA.

Substance | ΔTm/mod (° C.) vs RNA (complementary RNA) | ΔTm/mod (° C.) vs DNA (complementary DNA) | also measured
07 (pA_{a}A_{a}C_{a}T_{a}G_{a}T_{b}C_{a}A_{a}C_{a}G_{a}; as printed in the source, key not given here) [compound 07] | +0.7 °C | 0 °C | 
SEQ ID NO. 17: GCATdTdTdTdTdACCG, 5 consecutive arabinofluoro residues (GCATTTTTACCG; listed as DNA, chemistry not fully specified) | +0.6 °C |  | 
SEQ ID NO. 21: pAaAaCbCbTbCbGaGaCbTbTbAaCbCbTb, fluoro-oligonucleotide 15-mer, PS linkages, 5′-phosphate, C is 5-methylcytosine (AACCTCGGCTTACCT; fluoro tricyclo-DNA, PS, 5′-phosphate, 5-methylcytosine; Sequence for biophysical analysis; (1)..(1) tricyclic nucleoside according to fomula I with T1 being phosphate, T2 being phosphorothioate, Bx being adenine and the other substituents being hydrogen; (2)..(2) tricyclic nucleoside according to fomula I with T1 and T2 being phosphorothioate, Bx being adenine and the other substituents being hydrogen; (3)..(3) tricyclic nucleoside according to fomula) |  |  | exon skipping (exon 23, gel of nested PCR products) [1]: substantial exon skipping; exon skipping, qualitative comparison with A21 ([1]; 50 μg, gymnosis, 4 days): slightly superior compared to A21
02 (AACTGTCACG; sugars from the 5' end d5 [tcDNA]1 d4, all phosphodiester, methylation of C not given here) [compound 02] | +0.9 °C | +2.1 °C | 
17 (GCAT_{d}T_{d}T_{d}T_{d}T_{d}ACCG; as printed in the source, key not given here) [compound 17] | +0.6 °C | -1.1 °C | 
SEQ ID NO. 16: unmodified oligonucleotide GCATTTTTACCG (unmodified DNA) [reference compound] |  |  | Tm duplexed with RNA (complementary RNA): 42.2 °C; Tm duplexed with DNA (complementary DNA): 45.6 °C
03 (dAdAdCdTdG[6'F-TC-T]dCdAdCdG) [compound 03] | +0.4 °C | +2.0 °C | 
SEQ ID NO. 19: pAaAaCaCaTaCaGaGaCaTaTaAaCaCaTa, 15-mer tricyclo-DNA, PS linkages, 5′-phosphate, no fluorine substituents ({P}-[tcDNA-A]*[tcDNA-A]*[tcDNA-C]*[tcDNA-C]*[tcDNA-T]*[tcDNA-C]*[tcDNA-G]*[tcDNA-G]*[tcDNA-C]*[tcDNA-T]*[tcDNA-T]*[tcDNA-A]*[tcDNA-C]*[tcDNA-C]*[tcDNA-T]) [reference compound] |  |  | exon skipping (exon 23, gel of nested PCR products) [1]: substantial exon skipping
SEQ ID NO. 07: pAaAaCaTaGaTbCaAaCaGa, tricyclo-DNA backbone with one 6′-fluoro residue, 5′-phosphorylated (AACTGTCACG; sugars from the 5' end [tcDNA]5 [F-tcDNA]1 [tcDNA]4, all phosphodiester, 5' {P}, methylation of C not given here) | up to +0.7 °C |  | 
16 (GCATTTTTACCG; unmodified DNA) [compound 16] | 0 °C | 0 °C | 
SEQ ID NO. 01: unmodified 10 mer DNA oligonucleotide AACTGTCACG, phosphodiester (unmodified DNA) [reference compound] |  |  | Tm duplexed with RNA (complementary RNA): 45.1 °C; Tm duplexed with DNA (complementary DNA): 43.5 °C
10 (AACTGT_{c}CACG; as printed in the source, key not given here) [compound 10] | +0.9 °C | +1.8 °C | 
SEQ ID NO. 06: pAaAaCaTaGaTaCaAaCaGa, fully modified tricyclo-DNA, 5′-phosphorylated (AACTGTCACG; all [tcDNA-N], all phosphodiester, 5' {P}, methylation of C not given here) [reference compound] |  |  | Tm duplexed with RNA (complementary RNA): 66.2 °C; Tm duplexed with DNA (complementary DNA): 55.0 °C
09 (pA_{a}A_{a}C_{a}T_{b}G_{a}T_{b}C_{a}A_{a}C_{a}G_{a}; as printed in the source, key not given here) [compound 09] | −0.2 °C | −1.8 °C | 
14 (AACT_{d}GTCACG; as printed in the source, key not given here) [compound 14] | −2.5 °C | −2.7 °C | 
12 (AACT_{c}GT_{c}CACG; as printed in the source, key not given here) [compound 12] | +2.8 °C | +1.8 °C | 
01 (AACTGTCACG; unmodified DNA) [compound 01] | 0 °C | 0 °C | 
05 (dAdAdC[6'F-TC-T]dG[6'F-TC-T]dCdAdCdG) [compound 05] | 0 °C | 0 °C | 
06 (pA_{a}A_{a}C_{a}T_{a}G_{a}T_{a}C_{a}A_{a}C_{a}G_{a}; fully modified with subtype a nucleosides (not given here), 5'-phosphate, phosphodiester, as printed in the source, key not given here) [compound 06] | 0 °C | 0 °C | 
13 (AACTGT_{d}CACG; as printed in the source, key not given here) [compound 13] | −4.7 °C | −4.5 °C | 
15 (AACT_{d}GT_{d}CACG; as printed in the source, key not given here) [compound 15] | −3.0 °C | −4.3 °C | 
04 (dAdAdC[6'F-TC-T]dGdTdCdAdCdG) [compound 04] | +0.7 °C | +1.6 °C | 
08 (pA_{a}A_{a}C_{a}T_{b}G_{a}T_{a}C_{a}A_{a}C_{a}G_{a}; as printed in the source, key not given here) [compound 08] | +0.3 °C | −1.6 °C | 
